Assay results: patent US20220265646A1, “PIEZO AGONISTS FOR PREVENTING OR REVERTING ABNORMAL AMYLOID DEPOSITION” (ITÄ-SUOMEN YLIOPISTO, priority 2019, published 2022)

Biological target: T1, native Piezo1Rs (Homo sapiens, UniProt Q92508)
T1 construct: endogenous in cells; host or cells: human iPSC-derived microglia
Assay: Calcium imaging of Yoda1-evoked Ca2+ influx in hiPSC-derived microglia
Format: cell-based
Conditions: 50 μM Yoda1, control hiPSC microglia pre-incubated 15 min in BS, n=6
Procedure: To study the calcium influx evoked by native Piezo1 Rs expressed in microglia cells the present inventors used short Yoda1 applications (2 s, 50 μM if not otherwise specified). For this purpose, human IPSO derived microglia cells and SV-40 (immortalized human microglia) cells were seeded on 7 mm cover slips 1 day prior to the imaging experiment. Cells were loaded with the calcium-sensitive fluorescent dye Fluo-4AM (5 μM) for 30 min at 37° C. Followed by wash-incubation for 15 min in Ab 20 μM, 50 μM GdCI and basic solution (BS) as a control at 37° C. The basic solution containing the following (BS, in mM): 2.5 KCl, 152 NaCl, 10 glucose, 2 CaCl2, and 10 HEPES at pH 7.4. Fluorescence was visualized using monochromatic light source (TILL Photonics GmbH) using Ex/Im 494/[…] and a CCD camera (SensiCam). Chemicals were applied using a fast perfusion system (RSC-200, BioLogic Science). To quantify the difference in the amplitude of calcium transients, the ratio values were normalized by subtracting a baseline and further divided by the amplitude of the calcium transient to the 2 sec application of the ionomycin. Data were pre-analyzed offline using the FEI offline analysis (TILL Photonics), and further analysis was automatized using MatLab. Quantitative data were expressed as means±SEM unless otherwise stated. Number of experiments is indicated by n. Significance assessed with the ANOVA test or Mann-Whitney t test for non-parametric data. Statistically significant differences were set at*p<0.05 and **p<0.01.
Differentiation of microglia. Differentiation of microglia was carried out as previously described with minor modifications (Abud et al., 2017). Shortly, on DO, iPSCs were dissociated to single cells with 0.5 mM EDTA or Accutase and were replated at a density of 6-,000-16,000 cells/cm2 on Matrigel in E8, 0.5% penicillin/streptomycin (P/S, 50 IU/50 […]), 5 ng/ml BMP4, 25 ng/ml activin a (both from Peprotech or Miltenyi Biotec), 1 μM CHIR 99021 (Axon or Stem Cell Technologies) and 10 μM Y-27632 to induce mesodermal differentiation. […]

T1 sequence (Q92508 whole entry): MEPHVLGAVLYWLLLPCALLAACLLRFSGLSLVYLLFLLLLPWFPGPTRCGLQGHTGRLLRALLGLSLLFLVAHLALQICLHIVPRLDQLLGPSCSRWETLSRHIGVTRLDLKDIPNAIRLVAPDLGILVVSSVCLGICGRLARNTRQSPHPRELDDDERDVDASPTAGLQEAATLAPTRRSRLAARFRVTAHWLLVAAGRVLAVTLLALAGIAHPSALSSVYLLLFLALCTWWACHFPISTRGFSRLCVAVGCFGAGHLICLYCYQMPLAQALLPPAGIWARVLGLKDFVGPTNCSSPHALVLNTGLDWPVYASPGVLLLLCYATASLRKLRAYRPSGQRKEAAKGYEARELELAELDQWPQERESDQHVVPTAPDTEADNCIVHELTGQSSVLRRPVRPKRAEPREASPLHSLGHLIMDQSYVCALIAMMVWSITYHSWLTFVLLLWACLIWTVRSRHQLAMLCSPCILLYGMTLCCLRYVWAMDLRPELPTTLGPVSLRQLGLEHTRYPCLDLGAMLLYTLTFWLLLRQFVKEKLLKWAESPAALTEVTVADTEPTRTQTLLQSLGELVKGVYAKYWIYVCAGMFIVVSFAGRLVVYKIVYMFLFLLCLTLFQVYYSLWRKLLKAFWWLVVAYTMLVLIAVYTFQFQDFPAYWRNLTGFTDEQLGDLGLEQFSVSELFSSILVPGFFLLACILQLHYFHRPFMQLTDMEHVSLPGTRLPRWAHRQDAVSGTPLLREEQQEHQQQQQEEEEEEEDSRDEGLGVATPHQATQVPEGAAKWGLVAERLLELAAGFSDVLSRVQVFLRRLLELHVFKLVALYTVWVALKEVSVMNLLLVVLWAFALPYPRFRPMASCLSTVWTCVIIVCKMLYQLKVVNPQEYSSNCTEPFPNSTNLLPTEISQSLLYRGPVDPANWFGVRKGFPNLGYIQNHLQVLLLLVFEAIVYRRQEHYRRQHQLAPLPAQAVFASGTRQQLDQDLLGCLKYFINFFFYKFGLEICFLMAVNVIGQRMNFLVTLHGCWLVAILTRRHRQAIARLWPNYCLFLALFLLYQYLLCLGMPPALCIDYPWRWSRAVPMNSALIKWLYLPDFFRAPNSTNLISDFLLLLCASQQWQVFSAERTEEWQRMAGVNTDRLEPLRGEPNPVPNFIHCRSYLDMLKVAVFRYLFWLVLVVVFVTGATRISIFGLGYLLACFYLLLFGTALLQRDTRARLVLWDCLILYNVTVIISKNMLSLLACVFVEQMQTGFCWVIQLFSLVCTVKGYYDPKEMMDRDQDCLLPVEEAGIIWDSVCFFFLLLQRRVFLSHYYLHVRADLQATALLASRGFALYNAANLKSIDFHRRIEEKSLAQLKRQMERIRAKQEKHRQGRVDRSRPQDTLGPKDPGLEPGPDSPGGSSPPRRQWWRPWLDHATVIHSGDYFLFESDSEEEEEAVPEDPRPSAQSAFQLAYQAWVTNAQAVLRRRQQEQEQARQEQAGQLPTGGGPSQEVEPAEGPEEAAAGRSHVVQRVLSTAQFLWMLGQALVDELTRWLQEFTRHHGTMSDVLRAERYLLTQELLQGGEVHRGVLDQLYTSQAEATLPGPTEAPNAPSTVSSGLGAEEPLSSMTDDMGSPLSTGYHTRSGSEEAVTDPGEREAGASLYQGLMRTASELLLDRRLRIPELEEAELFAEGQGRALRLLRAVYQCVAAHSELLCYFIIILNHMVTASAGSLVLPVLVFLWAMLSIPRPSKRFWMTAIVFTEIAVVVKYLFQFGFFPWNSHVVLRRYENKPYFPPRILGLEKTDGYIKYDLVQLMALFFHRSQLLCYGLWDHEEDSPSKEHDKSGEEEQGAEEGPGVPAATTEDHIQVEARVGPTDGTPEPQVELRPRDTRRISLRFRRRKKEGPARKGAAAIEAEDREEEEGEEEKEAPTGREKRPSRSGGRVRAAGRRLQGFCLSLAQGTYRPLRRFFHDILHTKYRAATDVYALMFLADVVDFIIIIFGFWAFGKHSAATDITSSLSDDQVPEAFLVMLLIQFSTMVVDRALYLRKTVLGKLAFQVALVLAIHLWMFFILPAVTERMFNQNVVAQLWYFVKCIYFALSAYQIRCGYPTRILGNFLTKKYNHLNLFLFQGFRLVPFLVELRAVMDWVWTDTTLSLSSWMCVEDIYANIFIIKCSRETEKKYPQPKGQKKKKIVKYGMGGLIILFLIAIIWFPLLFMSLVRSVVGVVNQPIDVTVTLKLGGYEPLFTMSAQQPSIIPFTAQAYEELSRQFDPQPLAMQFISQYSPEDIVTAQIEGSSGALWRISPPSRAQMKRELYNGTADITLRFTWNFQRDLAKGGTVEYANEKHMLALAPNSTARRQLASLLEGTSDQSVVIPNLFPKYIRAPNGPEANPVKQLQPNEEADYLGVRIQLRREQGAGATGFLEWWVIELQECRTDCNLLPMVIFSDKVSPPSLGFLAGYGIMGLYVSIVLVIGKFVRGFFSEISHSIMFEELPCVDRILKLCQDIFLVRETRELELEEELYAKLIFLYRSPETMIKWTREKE

## Clc1cccc(Cl)c1CSc1nnc(-c2cnccn2)s1 [Yoda1]
  Ca2+ transients evoked by Yoda1 short (2 s) application, amplitude normalized to ionomycin: 1.15±0.36
